# Measured values published in publication PMC11845761, “Intestinal human carboxylesterase 2 (CES2) expression rescues drug metabolism and most metabolic syndrome phenotypes in global Ces2 cluster knockout mice” (Acta Pharmacologica Sinica, 2024).
# Key:
# [1] = Plasma pharmacokinetics of vinorelbine and deacetylvinorelbine after oral vinorelbine in CES2-modified mice; type: in vivo, mouse; details: oral vinorelbine 10 mg/kg; for AUC0-4h / AUC0-4h ratio (× 10^−3) (deacetylvinorelbine/vinorelbine) / Cmax / Tmax: plasma
# Description: (§1) For capecitabine 2-h experiments, 6–7 female mice received oral capecitabine (500 mg/kg, 10 μL/g), and tail vein blood samples were collected at 0.125, 0.25, 0.5 and 1 h after drug administration. For the vinorelbine 4-h experiment, 6-7 male mice received vinorelbine intravenously (10 mg/kg, 5 μL/g) or orally (10 mg/kg, 10 μL/g) using a blunt-ended needle. Tail vein blood samples were collected at 0.125, 0.25, 0.5, 1 and 2 h after drug administration. […] At the last time point in each experiment (2 or 4 h), mice were anesthetized with 5% isoflurane and blood was collected by cardiac puncture. […] Plasma was isolated from the blood by centrifugation at 9000 × g for 6 min at 4 °C, and the plasma fraction was collected and stored at −30 °C until analysis.
# (§2) Concentrations of capecitabine (and its metabolites) and vinorelbine (and its metabolite) in mouse plasma samples and organ homogenates were determined using two independent validated high-performance liquid chromatography-tandem mass spectrometry assays.
# (§3) Pharmacokinetic parameters were calculated by non-compartmental methods using the PK solver software. […] Differences were considered statistically significant when P < 0.05. All data are presented as mean ± SD.
# [2] = Plasma pharmacokinetics of vinorelbine and deacetylvinorelbine after i.v. vinorelbine in CES2-modified mice; details: i.v. vinorelbine 10 mg/kg; for AUC0-4h / AUC0-4h ratio (× 10^−3) (deacetylvinorelbine/vinorelbine) / Cmax / Tmax: plasma
# Description: In order to minimize variation among individuals, mice were fasted for 3 h before drug was administered orally or intravenously. […] For the vinorelbine 4-h experiment, 6-7 male mice received vinorelbine intravenously (10 mg/kg, 5 μL/g) or orally (10 mg/kg, 10 μL/g) using a blunt-ended needle. […] Time points of termination were chosen to allow both reasonable assessment of the plasma exposure of the compound and its main metabolites, and adequate measurement of tissue concentrations. In order to minimize the generation and use of mice, and as no pronounced sex differences were expected, female mice were used for the capecitabine studies and male mice for the vinorelbine studies. Tail vein blood sample collection (~50 μL) was performed using microvettes containing dipotassium-EDTA. All blood samples were rapidly placed on ice to limit any ongoing hydrolysis. At the last time point in each experiment (2 or 4 h), mice were anesthetized with 5% isoflurane and blood was collected by cardiac puncture. Cardiac puncture blood samples (600–800 μL) were collected in Eppendorf tubes containing heparin as an anticoagulant. The mice were then sacrificed by cervical dislocation and brain, liver, kidney, lung, small intestine and testis were rapidly removed. Plasma was isolated from the blood by centrifugation at 9000 × g for 6 min at 4 °C, and the plasma fraction was collected and stored at −30 °C until analysis. Organs were homogenized with 4% (w/v) bovine serum albumin and stored at −30 °C until analysis. Relative metabolite-to-parental drug ratio after drug administration was calculated by determining metabolite tissue concentration relative to corresponding parental drug concentration at the last time point.
# as §2
# Pharmacokinetic parameters were calculated by non-compartmental methods using the PK solver software. The area under the plasma concentration-time curve (AUC) was calculated using the trapezoidal rule, without extrapolating to infinity. The peak plasma concentration (Cmax) and the time of maximum plasma concentration (Tmax) were estimated from the original (individual mouse) data. One-way analysis of variance (ANOVA) was used when multiple groups were compared and the Tukey’s test post hoc correction was used to accommodate multiple testing. The two-sided unpaired Student’s t-test was used when treatments or differences between two specific groups were compared. Kruskal-Wallis rank test was used for semi-quantitative assessment for (H&E)-staining of white adipose tissue and Oil Red O-staining of liver. All statistical analyses were performed using the software GraphPad Prism 8 (GraphPad Software Inc., La Jolla, CA, USA). All the linear data were log-transformed before statistical tests were applied. Differences were considered statistically significant when P < 0.05. All data are presented as mean ± SD.
# [3] = Tissue concentrations of vinorelbine and deacetylvinorelbine 4 h after oral vinorelbine in CES2-modified mice; type: in vivo, mouse; details: oral vinorelbine 10 mg/kg
# Description: as §1, §2, §3
compound,measurement,setting,value
"CCC1=C[C@@H]2CN(C1)Cc1c([nH]c3ccccc13)[C@@](C(=O)OC)(c1cc3c(cc1OC)N(C)[C@H]1[C@@](O)(C(=O)OC)[C@H](O)[C@]4(CC)C=CCN5CC[C@]31[C@@H]54)C2 [Deacetylvinorelbine, 4’-O-deacetylvinorelbine]",AUC0-4h,[1]; male Ces2^–/– mice,1.0 ± 0.4 ng·h/mL
same,AUC0-4h ratio (× 10^−3) (deacetylvinorelbine/vinorelbine),[1]; male Ces2^–/– mice,2.0 ± 0.4 × 10^−3
same,Cmax,[1]; male Ces2^–/– mice,0.42 ± 0.15 ng/mL
same,Tmax,[1]; male Ces2^–/– mice,3.7 ± 0.8 h
same,AUC0-4h,[1]; male Ces2^–/–A mice,3.7 ± 2.2 ng·h/mL
same,AUC0-4h ratio (× 10^−3) (deacetylvinorelbine/vinorelbine),[1]; male Ces2^–/–A mice,6.3 ± 7.8 × 10^−3
same,Cmax,[1]; male Ces2^–/–A mice,1.5 ± 1.1 ng/mL
same,Tmax,[1]; male Ces2^–/–A mice,2.6 ± 1.0 h
same,AUC0-4h,[1]; male Ces2^–/–V mice,3.3 ± 2.3 ng·h/mL
same,AUC0-4h ratio (× 10^−3) (deacetylvinorelbine/vinorelbine),[1]; male Ces2^–/–V mice,5.3 ± 1.9 × 10^−3
same,Cmax,[1]; male Ces2^–/–V mice,1.4 ± 1.2 ng/mL
same,Tmax,[1]; male Ces2^–/–V mice,2.7 ± 1.0 h
same,"plasma AUC0-4h, fold increase in Ces2^–/–A compared with Ces2^–/– mice",[1]; male mice,3.7 fold
same,"plasma AUC0-4h, fold increase in Ces2^–/–V compared with Ces2^–/– mice",[1]; male mice,3.3 fold
same,AUC0-4h,[1]; male wild-type mice,238 ± 112 ng·h/mL
same,AUC0-4h ratio (× 10^−3) (deacetylvinorelbine/vinorelbine),[1]; male wild-type mice,640 ± 170 × 10^−3
same,Cmax,[1]; male wild-type mice,91 ± 44 ng/mL
same,Tmax,[1]; male wild-type mice,1.7 ± 0.7 h
same,AUC0-4h,[2]; male Ces2^–/– mice,10.1 ± 2.3 ng·h/mL
same,AUC0-4h ratio (× 10^−3) (deacetylvinorelbine/vinorelbine),[2]; male Ces2^–/– mice,1.7 ± 0.2 × 10^−3
same,Cmax,[2]; male Ces2^–/– mice,5.9 ± 1.4 ng/mL
same,Tmax,[2]; male Ces2^–/– mice,0.13 ± 0.00 h
same,"plasma AUC0-4h, fold decrease vs wild-type",[2]; male Ces2^–/–A mice,55.5 fold
same,AUC0-4h,[2]; male Ces2^–/–A mice,12.0 ± 3.8 ng·h/mL
same,AUC0-4h ratio (× 10^−3) (deacetylvinorelbine/vinorelbine),[2]; male Ces2^–/–A mice,2.2 ± 0.5 × 10^−3
same,Cmax,[2]; male Ces2^–/–A mice,7.6 ± 2.7 ng/mL
same,Tmax,[2]; male Ces2^–/–A mice,0.25 ± 0.19 h
same,"plasma AUC0-4h, fold decrease vs wild-type",[2]; male Ces2^–/–V mice,41.1 fold
same,AUC0-4h,[2]; male Ces2^–/–V mice,16.2 ± 8.4 ng·h/mL
same,AUC0-4h ratio (× 10^−3) (deacetylvinorelbine/vinorelbine),[2]; male Ces2^–/–V mice,1.7 ± 0.2 × 10^−3
same,Cmax,[2]; male Ces2^–/–V mice,8.2 ± 3.5 ng/mL
same,Tmax,[2]; male Ces2^–/–V mice,0.17 ± 0.07 h
same,AUC0-4h,[2]; male wild-type mice,666 ± 138 ng·h/mL
same,AUC0-4h ratio (× 10^−3) (deacetylvinorelbine/vinorelbine),[2]; male wild-type mice,110 ± 60 × 10^−3
same,Cmax,[2]; male wild-type mice,346 ± 104 ng/mL
same,Tmax,[2]; male wild-type mice,0.46 ± 0.76 h
same,CSI (small intestine tissue concentration),[3]; male Ces2^–/– mice,625 ± 219 ng/g
same,CSIC (small intestine contents concentration),[3]; male Ces2^–/– mice,1091 ± 405 ng/g
same,Ccolon (colon concentration),[3]; male Ces2^–/– mice,5.0 ± 2.1 ng/g
same,Cliver (liver concentration),[3]; male Ces2^–/– mice,82 ± 29 ng/g
same,Colon Ratio (x 10^-3) (deacetylvinorelbine /vinorelbine),[3]; male Ces2^–/– mice,8.4 ± 1.5 x 10^-3
same,Liver Ratio (x 10^-3) (deacetylvinorelbine /vinorelbine),[3]; male Ces2^–/– mice,15 ± 7.5 x 10^-3
same,Small intestine Ratio (x 10^-3) (deacetylvinorelbine /vinorelbine),[3]; male Ces2^–/– mice,34 ± 10.0 x 10^-3
same,Small intestine contents Ratio (x 10^-3) (deacetylvinorelbine /vinorelbine),[3]; male Ces2^–/– mice,6.7 ± 1.4 x 10^-3
same,"liver deacetylvinorelbine-to-vinorelbine ratio, fold decrease vs wild-type",[3]; male Ces2^–/– mice,333 fold
same,small intestine tissue deacetylvinorelbine-to-vinorelbine ratio,[3]; male Ces2^–/– mice,0.034 ± 0.010
same,CSI (small intestine tissue concentration),[3]; male Ces2^–/–A mice,748 ± 225 ng/g
same,CSIC (small intestine contents concentration),[3]; male Ces2^–/–A mice,1120 ± 623 ng/g
same,Ccolon (colon concentration),[3]; male Ces2^–/–A mice,6.0 ± 2.6 ng/g
same,Cliver (liver concentration),[3]; male Ces2^–/–A mice,162 ± 52 ng/g
same,Colon Ratio (x 10^-3) (deacetylvinorelbine /vinorelbine),[3]; male Ces2^–/–A mice,7.8 ± 2.6 x 10^-3
same,Liver Ratio (x 10^-3) (deacetylvinorelbine /vinorelbine),[3]; male Ces2^–/–A mice,19 ± 1.7 x 10^-3
same,Small intestine Ratio (x 10^-3) (deacetylvinorelbine /vinorelbine),[3]; male Ces2^–/–A mice,39 ± 8.0 x 10^-3
same,Small intestine contents Ratio (x 10^-3) (deacetylvinorelbine /vinorelbine),[3]; male Ces2^–/–A mice,5.9 ± 1.6 x 10^-3
same,"liver deacetylvinorelbine-to-vinorelbine ratio, fold decrease vs wild-type",[3]; male Ces2^–/–A mice,263 fold
same,small intestine tissue deacetylvinorelbine-to-vinorelbine ratio,[3]; male Ces2^–/–A mice,0.039 ± 0.008
same,CSI (small intestine tissue concentration),[3]; male Ces2^–/–V mice,808 ± 578 ng/g
same,CSIC (small intestine contents concentration),[3]; male Ces2^–/–V mice,957 ± 441 ng/g
